Values after ≈ are worked out from the molar mass of the structure shown. Where two headings read alike, the source gives them in different places.
Experiments:
Type in all cases: in vivo
[1] = system: Resistant Plutella xylostella; experiment: Field test on Plutella xylostella (cabbage, spray); settings: larvae per 10 heads of cabbage, not sprayed = 100
Procedure: Field test on Plutella xylostella:
On predetermined dates, the number of larvae per 10 heads of cabbage was examined, and the corrected density indices of the test compounds were calculated in accordance with the following equation. [formula]

[2] = system: Sensitive Plutella xylostella; experiment: Indoor test on 3rd-instar larvae of Plutella xylostella, sensitive insects (cabbage leaf dip); settings: foliar, read-out: LC50 (50% lethal concentration)
Procedure: (§1) Indoor test on 3rd-instar larvae of Plutella xylostella:
(§2) A wettable powder prepared as in Formulation Example 2 was diluted to a predetermined concentration. Cabbage leaves were dipped for 10 seconds in the resulting dilution and then air dried. The leaves were put into a polyvinyl chloride cup having a capacity of 90 ml together with 3rd-instar larvae of Plutella xylostella. The cup was left to stand in a constant temperature chamber kept at 25° C., and 72 hours later, the number of dead insects was examined. For each test area, the test was repeated twice, and 20 insects were used in each area. The ratio of the dead insects was calculated, and LC50 (50% lethal concentration) values of the test compounds were determined by the method of Bliss.
(§3) The sensitive Plutella xylostella insects in the table were those bred through generations at the Laboratory of Yashima Chemical Industrial Co., Ltd. The resistant ones were hunted at Tsumakoi-mura, Gunma-ken, Japan.

[3] = system: Resistant Plutella xylostella; experiment: Indoor test on 3rd-instar larvae of Plutella xylostella, resistant insects (cabbage leaf dip); settings: foliar, read-out: LC50 (50% lethal concentration)
Procedure: as §1, §2, §3

Thrips palmi = experiment: Test on Thrips palmi (potted eggplants, spray); settings: eggplants in pots, not sprayed = 100
Procedure: An emulsifiable emulsion prepared as in Formulation Example 3 was diluted with water to a predetermined concentration. The dilution was sprayed on eggplants which were grown in pots and on which Thrips palmi was parasitic, so that the dilution fully dripped on the plant leaves. The number of dead insects was examined at predetermined dates, and the corrected density indices of the test compounds were calculated. For each area, the test was repeated three times.

SMILES: COP(=O)(NC(C)=O)SC (centres unmarked) [Acephate, O,S--dimethyl N--acetylphosphoramidothiolate, reference compound]
- Corrected density index After 3 days ([1]; 500 ppm): 8
- Corrected density index After 7 days ([1]; 500 ppm): 12
- Corrected density index After 14 days ([1]; 500 ppm): 15
- LC50 ([2]; Plutella xylostella, 72 h): 178 µg/mL (≈ 972 µM)
- LC50 ([3]; Plutella xylostella, 72 h): 878 µg/mL (≈ 4790 µM)

SMILES: CCC(C)c1ccccc1OC(=O)NC (centres unmarked) [BPMC, 2sec. butylphenylN--methyl carbamate, reference compound]
- Corrected density index After 1 day (Thrips palmi; 250 ppm): 7
- Corrected density index After 3 days (Thrips palmi; 250 ppm): 35
- Corrected density index After 7 days (Thrips palmi; 250 ppm): 57
- Corrected density index After 1 day (Thrips palmi; 500 ppm): 2
- Corrected density index After 3 days (Thrips palmi; 500 ppm): 15
- Corrected density index After 7 days (Thrips palmi; 500 ppm): 45

SMILES: CC(C)(C(=O)Nc1ccc(Br)cc1)c1ccc(Cl)cc1 [Compound No. 3]
- Corrected density index After 1 day (Thrips palmi; 250 ppm): 16
- Corrected density index After 3 days (Thrips palmi; 250 ppm): 8
- Corrected density index After 7 days (Thrips palmi; 250 ppm): 14
- Corrected density index After 1 day (Thrips palmi; 500 ppm): 9
- Corrected density index After 3 days (Thrips palmi; 500 ppm): 3
- Corrected density index After 7 days (Thrips palmi; 500 ppm): 3
- Corrected density index After 3 days ([1]; 250 ppm): 7
- Corrected density index After 7 days ([1]; 250 ppm): 2
- Corrected density index After 14 days ([1]; 250 ppm): 3
- LC50 ([2]; Plutella xylostella, 72 h): 57 µg/mL (≈ 162 µM)
- LC50 ([3]; Plutella xylostella, 72 h): 51 µg/mL (≈ 145 µM)

SMILES: CC(C)(C(=O)Nc1ccc(C(F)(F)F)cc1)c1ccc(Cl)cc1 [Compound No. 4]
- Corrected density index After 1 day (Thrips palmi; 250 ppm): 19
- Corrected density index After 3 days (Thrips palmi; 250 ppm): 8
- Corrected density index After 7 days (Thrips palmi; 250 ppm): 11
- Corrected density index After 1 day (Thrips palmi; 500 ppm): 12
- Corrected density index After 3 days (Thrips palmi; 500 ppm): 4
- Corrected density index After 7 days (Thrips palmi; 500 ppm): 6
- Corrected density index After 3 days ([1]; 250 ppm): 7
- Corrected density index After 7 days ([1]; 250 ppm): 1
- Corrected density index After 14 days ([1]; 250 ppm): 0
- LC50 ([2]; Plutella xylostella, 72 h): 95 µg/mL (≈ 278 µM)
- LC50 ([3]; Plutella xylostella, 72 h): 96 µg/mL (≈ 281 µM)

SMILES: CCN(C(=O)C(C)(C)c1ccc(Cl)cc1)c1ccc(Cl)cc1 [Compound No. 7]
- Corrected density index After 1 day (Thrips palmi; 250 ppm): 16
- Corrected density index After 3 days (Thrips palmi; 250 ppm): 9
- Corrected density index After 7 days (Thrips palmi; 250 ppm): 13
- Corrected density index After 1 day (Thrips palmi; 500 ppm): 10
- Corrected density index After 3 days (Thrips palmi; 500 ppm): 2
- Corrected density index After 7 days (Thrips palmi; 500 ppm): 3
- Corrected density index After 3 days ([1]; 250 ppm): 4
- Corrected density index After 7 days ([1]; 250 ppm): 0
- Corrected density index After 14 days ([1]; 250 ppm): 0
- LC50 ([2]; Plutella xylostella, 72 h): 51 µg/mL (≈ 152 µM)
- LC50 ([3]; Plutella xylostella, 72 h): 53 µg/mL (≈ 158 µM)

SMILES: COP(=O)(OC)OC=C(Cl)Cl [DDVP, 2,2-dichlorovinyl dimethyl phosphate, reference compound]
- Corrected density index After 3 days ([1]; 500 ppm): 15
- Corrected density index After 7 days ([1]; 500 ppm): 52
- Corrected density index After 14 days ([1]; 500 ppm): 86
- LC50 ([2]; sensitive Plutella xylostella, 3rd-instar larvae, 72 hours, 25° C., wettable powder dilution, method of Bliss): 103 µg/mL
- LC50 ([3]; resistant Plutella xylostella, 3rd-instar larvae, 72 hours, 25° C., wettable powder dilution, method of Bliss): 1020 µg/mL

SMILES: CC(C)(C(=O)Nc1ccc(F)cc1)c1ccc(Cl)cc1 [compound 1]
- LC50 ([2]; Plutella xylostella, 72 h): 126 µg/mL (≈ 432 µM)
- LC50 ([3]; Plutella xylostella, 72 h): 123 µg/mL (≈ 422 µM)

SMILES: CC(C)(C(=O)Nc1ccc(Cl)cc1)c1ccc(Cl)cc1 [compound 2, alpha,alpha-dimethyl-p-chlorophenylaceto-p-chloranilide]
- Corrected density index After 1 day (Thrips palmi; 250 ppm): 16
- Corrected density index After 3 days (Thrips palmi; 250 ppm): 14
- Corrected density index After 7 days (Thrips palmi; 250 ppm): 14
- Corrected density index After 1 day (Thrips palmi; 500 ppm): 20
- Corrected density index After 3 days (Thrips palmi; 500 ppm): 10
- Corrected density index After 7 days (Thrips palmi; 500 ppm): 12
- Corrected density index After 3 days ([1]; 250 ppm): 10
- Corrected density index After 7 days ([1]; 250 ppm): 5
- Corrected density index After 14 days ([1]; 250 ppm): 2
- LC50 ([2]; Plutella xylostella, 72 h): 101 µg/mL (≈ 328 µM)
- LC50 ([3]; Plutella xylostella, 72 h): 110 µg/mL (≈ 357 µM)

SMILES: CC(C)(C(=O)Nc1ccc(C#N)cc1)c1ccc(Cl)cc1 [compound 5]
- LC50 ([2]; Plutella xylostella, 72 h): 97 µg/mL (≈ 325 µM)
- LC50 ([3]; Plutella xylostella, 72 h): 90 µg/mL (≈ 301 µM)

SMILES: CN(C(=O)C(C)(C)c1ccc(Cl)cc1)c1ccc(Cl)cc1 [compound 6]
- LC50 ([2]; Plutella xylostella, 72 h): 61 µg/mL (≈ 189 µM)
- LC50 ([3]; Plutella xylostella, 72 h): 60 µg/mL (≈ 186 µM)

SMILES: CCCN(C(=O)C(C)(C)c1ccc(Cl)cc1)c1ccc(Cl)cc1 [compound 8]
- LC50 ([2]; Plutella xylostella, 72 h): 198 µg/mL (≈ 565 µM)
- LC50 ([3]; Plutella xylostella, 72 h): 204 µg/mL (≈ 582 µM)

SMILES: CCCCN(C(=O)C(C)(C)c1ccc(Cl)cc1)c1ccc(Cl)cc1 [compound 9]
- LC50 ([2]; Plutella xylostella, 72 h): 372 µg/mL (≈ 1020 µM)
- LC50 ([3]; Plutella xylostella, 72 h): 365 µg/mL (≈ 1000 µM)

SMILES: CCN(C(=O)C(C)(C)c1ccc(Cl)cc1)c1ccc(Br)cc1 [compound 10, alpha,alpha-dimethyl-p-chlorophenylaceto-N-ethyl-p-bromanilide]
- Corrected density index After 1 day (Thrips palmi; 250 ppm): 12
- Corrected density index After 3 days (Thrips palmi; 250 ppm): 12
- Corrected density index After 7 days (Thrips palmi; 250 ppm): 11
- Corrected density index After 1 day (Thrips palmi; 500 ppm): 7
- Corrected density index After 3 days (Thrips palmi; 500 ppm): 1
- Corrected density index After 7 days (Thrips palmi; 500 ppm): 4
- Corrected density index After 3 days ([1]; 250 ppm): 5
- Corrected density index After 7 days ([1]; 250 ppm): 0
- Corrected density index After 14 days ([1]; 250 ppm): 0
- LC50 ([2]; Plutella xylostella, 72 h): 48 µg/mL (≈ 126 µM)
- LC50 ([3]; Plutella xylostella, 72 h): 46 µg/mL (≈ 121 µM)

SMILES: CC(C)(C(=O)Nc1ccc(Cl)cc1)c1ccc(F)cc1 [compound 11]
- LC50 ([2]; Plutella xylostella, 72 h): 107 µg/mL (≈ 367 µM)
- LC50 ([3]; Plutella xylostella, 72 h): 111 µg/mL (≈ 380 µM)

SMILES: CC(C)(C(=O)Nc1ccc(C(F)(F)F)cc1)c1ccc(F)cc1 [compound 12]
- LC50 ([2]; Plutella xylostella, 72 h): 95 µg/mL (≈ 292 µM)
- LC50 ([3]; Plutella xylostella, 72 h): 110 µg/mL (≈ 338 µM)

SMILES: CCN(C(=O)C(C)(C)c1ccc(F)cc1)c1ccc(Cl)cc1 [compound 13]
- LC50 ([2]; Plutella xylostella, 72 h): 74 µg/mL (≈ 231 µM)
- LC50 ([3]; Plutella xylostella, 72 h): 73 µg/mL (≈ 228 µM)

SMILES: CCN(C(=O)C(C)(C)c1ccc(F)cc1)c1ccc(Br)cc1 [compound 14]
- LC50 ([2]; Plutella xylostella, 72 h): 88 µg/mL (≈ 242 µM)
- LC50 ([3]; Plutella xylostella, 72 h): 93 µg/mL (≈ 255 µM)

SMILES: CC(C)(C(=O)Nc1ccc(Cl)cc1)c1ccc(Br)cc1 [compound 15]
- LC50 ([2]; Plutella xylostella, 72 h): 137 µg/mL (≈ 388 µM)
- LC50 ([3]; Plutella xylostella, 72 h): 129 µg/mL (≈ 366 µM)

SMILES: CC(C)(C(=O)Nc1ccc(Cl)cc1)c1ccccc1F [compound 16]
- LC50 ([2]; Plutella xylostella, 72 h): 320 µg/mL (≈ 1100 µM)
- LC50 ([3]; Plutella xylostella, 72 h): 331 µg/mL (≈ 1130 µM)

SMILES: CC(C)(C(=O)Nc1ccc(C(F)(F)F)cc1)c1ccccc1F [compound 17]
- LC50 ([2]; Plutella xylostella, 72 h): 281 µg/mL (≈ 864 µM)
- LC50 ([3]; Plutella xylostella, 72 h): 256 µg/mL (≈ 787 µM)

SMILES: CN(C(=O)C(C)(C)c1ccccc1F)c1ccc(Cl)cc1 [compound 18]
- LC50 ([2]; Plutella xylostella, 72 h): 213 µg/mL (≈ 697 µM)
- LC50 ([3]; Plutella xylostella, 72 h): 211 µg/mL (≈ 690 µM)

SMILES: CC(C)(C(=O)Nc1ccc(Cl)cc1)c1ccc(Cl)cc1Cl [compound 19]
- LC50 ([2]; Plutella xylostella, 72 h): 119 µg/mL (≈ 347 µM)
- LC50 ([3]; Plutella xylostella, 72 h): 106 µg/mL (≈ 309 µM)

SMILES: CC(C)(C(=O)Nc1ccc(F)cc1)c1ccc(Cl)cc1Cl [compound 20]
- LC50 ([2]; Plutella xylostella, 72 h): 122 µg/mL (≈ 374 µM)
- LC50 ([3]; Plutella xylostella, 72 h): 128 µg/mL (≈ 392 µM)

From US4582934A, “Alpha,alpha-dimethylphenylacetanilide derivatives, process for production thereof, and use thereof as insecticide” (Yashima Chemical Industrial Co., Ltd., priority 1983, dated 1986)
